Assay: molar heat capacity at constant pressure; xn = mol fraction of the nth substance listed
Conditions: 101.3 kPa, Liquid, Small sample (50 mg) DSC

CCC(C)(C)O [2-methylbutan-2-ol] + CCCCCCC
Conditions	molar heat capacity at constant pressure [J/K/mol]
284.14 K, x1 = 0.0061	220.41
284.14 K, x1 = 0.0249	226.02
284.14 K, x1 = 0.0494	229.4
284.14 K, x1 = 0.1999	234.97
284.14 K, x1 = 0.4051	235.79
284.14 K, x1 = 0.5981	234.72
284.14 K, x1 = 0.7015	233.37
284.14 K, x1 = 0.9139	231.9
284.14 K, x1 = 0.9609	232.4
284.16 K, x1 = 0.1	232.58
284.16 K, x1 = 0.1547	234.25
284.16 K, x1 = 0.2993	235.98
284.16 K, x1 = 0.4986	235.43
284.18 K, x1 = 0.8023	232.34
285.15 K, x1 = 0.0061	220.65
285.15 K, x1 = 0.0249	226.27
285.15 K, x1 = 0.0494	229.86
285.15 K, x1 = 0.1	233.16
285.15 K, x1 = 0.1547	234.99
285.15 K, x1 = 0.1999	235.77
285.15 K, x1 = 0.2993	236.86
285.15 K, x1 = 0.4051	236.78
285.15 K, x1 = 0.4986	236.52
285.15 K, x1 = 0.5981	235.88
285.15 K, x1 = 0.7015	234.58
285.15 K, x1 = 0.8023	233.57
285.15 K, x1 = 0.9609	233.54
285.51 K, x1 = 0.9139	233.61
286.16 K, x1 = 0.0061	220.9
286.16 K, x1 = 0.0249	226.64
286.16 K, x1 = 0.0494	230.34
286.16 K, x1 = 0.1	233.84
286.16 K, x1 = 0.1547	235.78
286.16 K, x1 = 0.1999	236.66
286.16 K, x1 = 0.2993	237.91
286.16 K, x1 = 0.4051	237.9
286.16 K, x1 = 0.4986	237.63
286.16 K, x1 = 0.5981	237.03
286.16 K, x1 = 0.7015	235.81
286.16 K, x1 = 0.8023	234.67
286.16 K, x1 = 0.9139	234.27
286.16 K, x1 = 0.9609	234.56
287.14 K, x1 = 0.0061	221.16
287.14 K, x1 = 0.0249	226.92
287.14 K, x1 = 0.0494	230.72
287.14 K, x1 = 0.1	234.39
287.14 K, x1 = 0.1547	236.4
287.14 K, x1 = 0.1999	237.42
287.14 K, x1 = 0.2993	238.78
287.14 K, x1 = 0.4051	238.87
287.14 K, x1 = 0.4986	238.65
287.14 K, x1 = 0.5981	238.11
287.14 K, x1 = 0.7015	236.94
287.14 K, x1 = 0.8023	235.73
287.14 K, x1 = 0.9139	235.37
287.14 K, x1 = 0.9609	235.45
288.15 K, x1 = 0.0061	221.55
288.15 K, x1 = 0.0249	227.34
288.15 K, x1 = 0.0494	231.29
288.15 K, x1 = 0.1	235.13
288.15 K, x1 = 0.1547	237.25
288.15 K, x1 = 0.1999	238.28
288.15 K, x1 = 0.2993	239.83
288.15 K, x1 = 0.4051	240.03
288.15 K, x1 = 0.4986	239.84
288.15 K, x1 = 0.5981	239.38
288.15 K, x1 = 0.7015	238.26
288.15 K, x1 = 0.8023	237.01
288.15 K, x1 = 0.9139	236.54
288.15 K, x1 = 0.9609	236.62
289.14 K, x1 = 0.0061	221.82
289.14 K, x1 = 0.0249	227.63
289.14 K, x1 = 0.0494	231.74
289.14 K, x1 = 0.1	235.73
289.14 K, x1 = 0.1547	237.99
289.14 K, x1 = 0.1999	239.11
289.14 K, x1 = 0.2993	240.71
289.14 K, x1 = 0.4051	241.03
289.14 K, x1 = 0.4986	240.91
289.14 K, x1 = 0.5981	240.51
289.14 K, x1 = 0.7015	239.53
289.14 K, x1 = 0.8023	238.27
289.14 K, x1 = 0.9139	237.62
289.14 K, x1 = 0.9609	237.61
290.14 K, x1 = 0.0061	222.02
290.14 K, x1 = 0.0249	227.88
290.14 K, x1 = 0.0494	232.1
290.14 K, x1 = 0.1	236.25
290.14 K, x1 = 0.1547	238.66
290.14 K, x1 = 0.1999	239.89
290.14 K, x1 = 0.2993	241.62
290.14 K, x1 = 0.4051	242.04
290.14 K, x1 = 0.4986	241.98
290.14 K, x1 = 0.5981	241.64
290.14 K, x1 = 0.7015	240.72
290.14 K, x1 = 0.8023	239.53
290.14 K, x1 = 0.9139	238.75
290.14 K, x1 = 0.9609	238.68
291.15 K, x1 = 0.0061	222.4
291.15 K, x1 = 0.0249	228.24
291.15 K, x1 = 0.0494	232.63
291.15 K, x1 = 0.1	236.91
291.15 K, x1 = 0.1547	239.46
291.15 K, x1 = 0.1999	240.73
291.15 K, x1 = 0.2993	242.6
291.15 K, x1 = 0.4051	243.13
291.15 K, x1 = 0.4986	243.16
291.15 K, x1 = 0.5981	242.84
291.15 K, x1 = 0.7015	241.97
291.15 K, x1 = 0.8023	240.74
291.15 K, x1 = 0.9139	239.92
291.15 K, x1 = 0.9609	239.8
292.14 K, x1 = 0.0061	222.7
292.14 K, x1 = 0.0494	233.02
292.14 K, x1 = 0.1	237.52
292.14 K, x1 = 0.1547	240.13
292.14 K, x1 = 0.1999	241.49
292.14 K, x1 = 0.2993	243.55
292.14 K, x1 = 0.4051	244.19
292.14 K, x1 = 0.4986	244.28
292.14 K, x1 = 0.5981	243.93
292.14 K, x1 = 0.7015	243.17
292.14 K, x1 = 0.8023	241.93
292.14 K, x1 = 0.9139	241.07

From the NIST ThermoML archive (doi:10.1016/j.jct.2008.10.010)
